Source: patent EP0302626A2, “Insecticidal compounds” (IMPERIAL CHEMICAL INDUSTRIES PLC, priority 1987, dated 1989)
Where “and” joins values, the source holds several entries; their conditions need not be identical. Identical values can stand only once. Like-named read-outs stand apart in the source and are kept apart here.

Tests used:
Format in all cases: in vivo
[1] = system: Tetranychus urticae (spider mites - adult); assay: insecticidal mortality test, contact, French bean leaf; conditions: Tetranychus urticae, 72 h; for mortality at 100 ppm: read-out: grading of mortality, Tua, 100 ppm, 3 days
Procedure: (§1) The activity of the Product was determined using a variety of insect pests. The Product was used in the form of liquid preparations containing 500, 250 or 100 parts per million (ppm) by weight of the Product. The preparations were made by dissolving the Product in acetone and diluting the solutions with water containing 0.01% by weight of a wetting agent sold under the trade name "LlSSAPOL" NX until the liquid preparations contained the required concentration of the Product. "Lissapol" is a Registered Trade Mark.
(§2) The test procedure adopted with regard to each pest was basically the same and comprised supporting a number of the pests on a medium which was usually a host plant or a foodstuff on which the pests feed, and treating either or both the pests and the medium with the preparations. The mortality of the pests was then assessed at periods usually varying from one to three days after the treatment.
(§3) The results of the tests are given in Table III for each of the Products, at the rate in parts per million given in the second column as a grading of mortality designated as A, B or C wherein A indicates 80-100% mortality, B indicates 50-79% mortality and C indicates less than 50% mortality.
(§4) In Table 111 the pest organism used is designated by a letter code and the pests species, the support medium or food, and the type and duration of test is given in Table II.

Myzus persicae (aphids) = assay: insecticidal mortality test, contact, Chinese Cabbage leaf; conditions: 72 h, read-out: grading of mortality, MP
Procedure: as §1, §2, §3, §4

[2] = system: Nephotettix cincticeps (green leaf hopper - nymphs); assay: insecticidal mortality test, contact, rice plant; conditions: 72 h, 100 ppm, contact, rice plant, 3 days, read-out: grading of mortality, NC
Procedure: as §1, §2, §3, §4

[3] = system: Heliothis virescens (tobacco budworm - larvae); assay: insecticidal mortality test, residual, cotton leaf; conditions: 72 h, read-out: grading of mortality, HV
Procedure: as §1, §2, §3, §4

[4] = system: Spodoptera exigua (lesser army worm - larvae); assay: insecticidal mortality test, residual, cotton leaf; conditions: 72 h, read-out: grading of mortality, SP
Procedure: as §1, §2, §3, §4

[5] = system: Diabrotica balteata (rootworm larvae); assay: insecticidal mortality test, residual, filter paper/maize seed; conditions: 72 h, read-out: grading of mortality, DB
Procedure: as §1, §2, §3, §4

[6] = system: Blattella germanica (cockroach nymphs); assay: insecticidal mortality test, residual, plastic pot; conditions: 72 h, read-out: grading of mortality, BG
Procedure: as §1, §2, §3, §4

[7] = system: Musca domestica (houseflies - adults); assay: insecticidal mortality test, contact, cotton wool/sugar; conditions: 24 h, read-out: grading of mortality, MD
Procedure: as §1, §2, §3, §4

[8] = system: Blattella germanica (adult males); assay: Blattella germanica knockdown test; conditions: tests 1 and 2 are repeats; for pest or weed control at 250 ppm: topical, 10 min, Tetramethrin: mean of 27 observations, read-out: % KNOCKDOWN OBSERVED 10 min
Procedure: The test compound was dissolved in acetone (2 cm³) and the solution diluted to a concentration of 250 ppm with kerosene. 1 cm³ Of this preparation was sprayed onto 10 Blattella germanica (adult males) held in a netted plastic pot in a Burkhard potter Tower. Assessment of knockdown was performed at intervals of 5 minutes up to a total of 20 minutes. On removal from the Burkhard Potter Tower, the insects were held at 25°C and 65% relative humidity for 48 hours, and an assessment of mortality performed. Each test was repeated.
In some tests, additional knockdown assessment was performed at intervals of 1, 2, 3 and 4 minutes, and KT₅₀ and KT₉₀ values determined (the time taken, in minutes, to knockdown 50% and 90% respectively of test insects).

[9] = system: Musca domestica (adult females); assay: Musca domestica knockdown test; conditions: 1 cm3 of 30 ppm solution in acetone, Kearns and March chamber, 20 adult females, observed over 10 minutes; average of 2 replicates (* single replicate, ** average of 7 tests)
Procedure: 1 cm³ Of a 30 ppm solution of the test chemical in acetone was sprayed into a Kearns and March chamber containing 20 Musca domestica (adult females). Knockdown was observed over a period of 10 minutes and KT₅₀ and KT₉₀ values (the time taken for 50% and 90% of the insects to be knocked down) were calculated from the observations. The results given in Table V represent average KT values of 2 replicates except where otherwise stated.

Nilaparvata lugens = assay: insecticidal mortality test, Nephotettix cincticeps replaced by Nilaparvata lugens; conditions: 72 h, read-out: grading of mortality, NC with Nilaparvata lugens
Procedure: as §1, §2, §3, §4

[10] = 100 ppm, residual, cotton leaf, 3 days
[11] = 250 ppm in kerosene, 1 cm3 sprayed onto 10 adult males
[12] = Blattella germanica, 250 ppm in kerosene, 1 cm3 sprayed onto 10 adult males
[13] = Nilaparvata lugens, in Oryza sativa

Row | Compound | mortality at 100 ppm [1] [%] | mortality at 100 ppm (Myzus persicae (aphids)) [%] | mortality at 100 ppm [3, 10] [%] | mortality at 100 ppm [4] [%] | mortality at 100 ppm [5] [%] | mortality at 100 ppm [6] [%] | mortality at 100 ppm [7] [%] | % KNOCKDOWN OBSERVED 15 min [8, 11] | pest or weed control at 250 ppm [8, 12] [%] | KT₅₀ [9] | KT₉₀ [9] | mortality at 100 ppm (Nilaparvata lugens; [13]) [%] | mortality at 500 ppm [3] [%] | further results
1 | CC1(C)C(C=C(Cl)C(F)(F)F)C1C(=O)OCc1c(F)c(F)c(CN=[N+]=[N-])c(F)c1F (racemic) [Product X, 4-(Azidomethyl)-2,3,5,6-tetrafluorobenzyl (1RS, cis)-3-(Z-2-chloro-3,3,3-trifluoroprop-1-en-1-yl)-2,2-dimethylcyclopropanecarboxylate] | 80 to 100 | 80 to 100 | 80 to 100 | 80 to 100 | 80 to 100 | 80 to 100 | 80 to 100 | 100% | 70 | 5.0* mins | 9.0* mins | – | – | mortality at 100 ppm [2]: 80 to 100%; mortality at 250 ppm ([8]; Blattella germanica, 48 h, 250 ppm spray, insects held at 25°C and 65% relative humidity for 48 hours, read-out: % MORTALITY 48 hrs): 100%
2 | CC1(C)C(C=C(Cl)C(F)(F)F)C1C(=O)OCc1c(F)c(F)c(CF)c(F)c1F (racemic) [Product II, 4-(Fluoromethyl)-2,3,5,6-tetrafluorobenzyl (1RS,cis)-3-(Z-2-chloro-3,3,3-trifluoroprop-1-en-1-yl)-2,2-dimethyl-cyclopropanecarboxylate] | < 50 | 80 to 100 | 80 to 100 | 80 to 100 | 80 to 100 | 80 to 100 | 80 to 100 | 90% and 100% | 60 | 2.7 min | 5.0 min | 80 to 100 | – | % KNOCKDOWN OBSERVED 20 min ([8]; 250 ppm in kerosene, 1 cm3 sprayed onto 10 adult males, 20 min): 90%
3 | C#Cc1c(F)c(F)c(COC(=O)C2C(C)(C)C2(C)C)c(F)c1F [Product XVII, 4-Ethynyl-2,3,5,6-tetrafluorobenzyl-2,2,3,3-tetramethylcyclopropanecarboxylate] | – | – | – | – | – | – | – | – | – | 4.1 min | 7.5 min | – | 80 to 100 | mortality at 500 ppm ([1]; 500 ppm, 3 days, read-out: grading of mortality, Tua): 80 to 100%; mortality at 500 ppm (Myzus persicae (aphids); 500 ppm, contact, Chinese Cabbage leaf, 3 days): < 50%; mortality at 500 ppm (Nilaparvata lugens; 500 ppm, footnote *: Nephotettix cincticeps replaced by Nilaparvata lugens, otherwise as NC test (contact, rice plant, 3 days)): 80 to 100%; mortality at 500 ppm ([4]; 500 ppm, residual, cotton leaf, 3 days): 80 to 100%; mortality at 500 ppm ([5]; 500 ppm, residual, filter paper/maize seed, 3 days): < 50%; mortality at 500 ppm ([6]; 500 ppm, residual, plastic pot, 3 days): 80 to 100%; mortality at 500 ppm ([7]; 500 ppm, contact, cotton wool/sugar, 1 day): 80 to 100%
4 | CC(C)=NNc1c(F)c(F)c(COC(=O)[C@@H]2[C@H](/C=C(\Cl)C(F)(F)F)C2(C)C)c(F)c1F (relative stereo) [Product XIII, 4-(prop-2-ylidenehydrazino)-2,3,5,6-tetrafluorobenzyl (1RS, cis)-3-(Z-2-chloro-3,3,3-trifluoroprop-1-en-1-yl)-2,2-dimethylcyclopropanecarboxylate] | < 50 | 50 to 79 | – | – | 80 to 100 | 80 to 100 | 80 to 100 | – | – | – | – | 80 to 100 | – | mortality at 100 ppm [3]: 80 to 100%
5 | CC(C)=NNc1c(F)c(F)c(COC(=O)[C@@H]2[C@H](C=C(Cl)Cl)C2(C)C)c(F)c1F (relative stereo) [Product XV, 4-(prop-2-ylidenehydrazino)-2,3,5,6-tetrafluorobenzyl (1RS, cis)-3-(2,2-dichloroethenyl)-2,2-dimethyl-cyclopropanecarboxylate] | – | – | – | – | – | – | – | – | – | – | – | – | 80 to 100 | mortality at 500 ppm (Myzus persicae (aphids)): 80 to 100%; mortality at 500 ppm (Nilaparvata lugens; [13]): 80 to 100%; mortality at 500 ppm [5]: 80 to 100%; mortality at 500 ppm [6]: 80 to 100%; mortality at 500 ppm [7]: 80 to 100%
